# Laboratory results published in ChEMBL document CHEMBL5696442, “Discovery of type II inhibitors of TGFβ-activated kinase 1 (TAK1) and mitogen-activated protein kinase kinase kinase kinase 2 (MAP4K2)” (J Med Chem, 2015).
# How the values were obtained:
# [1] = molecular target: Casein kinase I isoform alpha (Homo sapiens) (UniProt P48729); assay: Inhibition of CK1a Lys2 labeling site in human Huh-7 cells at 1 uM by KiNativ Profiling analysis relative to control; format: cell-based
# [2] = molecular target: Casein kinase I isoform epsilon (Homo sapiens) (UniProt P49674); assay: Inhibition of CK1epsilon Lys2 labeling site in human Huh-7 cell lysate at 1 uM by KiNativ Profiling analysis relative to control; format: subcellular
# Sequence of Casein kinase I isoform epsilon (Homo sapiens) (P49674 whole entry, looked up, canonical isoform): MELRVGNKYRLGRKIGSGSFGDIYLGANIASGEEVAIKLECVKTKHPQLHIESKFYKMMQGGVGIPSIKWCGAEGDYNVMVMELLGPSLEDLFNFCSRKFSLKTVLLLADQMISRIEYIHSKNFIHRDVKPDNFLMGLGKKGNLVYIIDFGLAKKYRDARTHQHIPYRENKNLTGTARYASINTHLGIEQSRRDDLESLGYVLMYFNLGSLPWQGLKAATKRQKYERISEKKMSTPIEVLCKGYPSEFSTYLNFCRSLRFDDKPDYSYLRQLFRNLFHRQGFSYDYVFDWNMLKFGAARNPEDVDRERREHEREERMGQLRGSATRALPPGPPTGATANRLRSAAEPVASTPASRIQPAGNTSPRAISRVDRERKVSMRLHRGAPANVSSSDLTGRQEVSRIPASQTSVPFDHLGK
# [3] = molecular target: Rho-associated protein kinase 1 (Homo sapiens) (UniProt Q13464); assay: Inhibition of ROCK1 in human Huh-7 cell lysate at 1 uM by KiNativ Profiling analysis relative to control; format: subcellular
# [4] = molecular target: T1, Eukaryotic elongation factor 2 kinase (Homo sapiens) (UniProt O00418); assay: Inhibition of eEF2K ATP labeling site harbouring YIKYNSNSGFVR in human A-375 cells at 5 uM by KiNativ Profiling analysis relative to control; format: cell-based
# T1 sequence (whole entry): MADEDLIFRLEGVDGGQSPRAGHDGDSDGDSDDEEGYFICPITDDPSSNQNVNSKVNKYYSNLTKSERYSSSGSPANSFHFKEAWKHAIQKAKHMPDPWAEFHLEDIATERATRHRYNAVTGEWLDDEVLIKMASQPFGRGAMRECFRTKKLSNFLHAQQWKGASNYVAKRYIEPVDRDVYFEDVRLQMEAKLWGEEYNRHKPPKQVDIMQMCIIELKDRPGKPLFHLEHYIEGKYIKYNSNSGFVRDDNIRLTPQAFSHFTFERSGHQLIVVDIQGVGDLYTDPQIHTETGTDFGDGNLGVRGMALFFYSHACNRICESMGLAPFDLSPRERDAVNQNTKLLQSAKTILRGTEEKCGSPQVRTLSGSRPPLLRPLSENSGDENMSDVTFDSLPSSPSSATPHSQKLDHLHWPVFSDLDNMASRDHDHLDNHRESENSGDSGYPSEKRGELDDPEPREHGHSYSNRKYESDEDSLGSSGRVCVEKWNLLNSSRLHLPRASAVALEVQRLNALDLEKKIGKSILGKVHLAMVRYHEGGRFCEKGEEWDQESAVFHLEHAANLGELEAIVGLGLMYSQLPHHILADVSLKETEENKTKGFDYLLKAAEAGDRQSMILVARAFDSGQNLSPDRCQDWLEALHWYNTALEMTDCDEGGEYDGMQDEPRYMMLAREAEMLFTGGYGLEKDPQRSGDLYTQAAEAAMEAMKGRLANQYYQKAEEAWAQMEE
# [5] = molecular target: Microtubule-associated serine/threonine-protein kinase 2 (Homo sapiens) (UniProt Q6P0Q8); assay: Inhibition of MAST2 Lys2 labeling site in human A-375 cells at 0.5 uM by KiNativ Profiling analysis relative to control; format: cell-based
# Sequence of Microtubule-associated serine/threonine-protein kinase 2 (Homo sapiens) (Q6P0Q8 whole entry): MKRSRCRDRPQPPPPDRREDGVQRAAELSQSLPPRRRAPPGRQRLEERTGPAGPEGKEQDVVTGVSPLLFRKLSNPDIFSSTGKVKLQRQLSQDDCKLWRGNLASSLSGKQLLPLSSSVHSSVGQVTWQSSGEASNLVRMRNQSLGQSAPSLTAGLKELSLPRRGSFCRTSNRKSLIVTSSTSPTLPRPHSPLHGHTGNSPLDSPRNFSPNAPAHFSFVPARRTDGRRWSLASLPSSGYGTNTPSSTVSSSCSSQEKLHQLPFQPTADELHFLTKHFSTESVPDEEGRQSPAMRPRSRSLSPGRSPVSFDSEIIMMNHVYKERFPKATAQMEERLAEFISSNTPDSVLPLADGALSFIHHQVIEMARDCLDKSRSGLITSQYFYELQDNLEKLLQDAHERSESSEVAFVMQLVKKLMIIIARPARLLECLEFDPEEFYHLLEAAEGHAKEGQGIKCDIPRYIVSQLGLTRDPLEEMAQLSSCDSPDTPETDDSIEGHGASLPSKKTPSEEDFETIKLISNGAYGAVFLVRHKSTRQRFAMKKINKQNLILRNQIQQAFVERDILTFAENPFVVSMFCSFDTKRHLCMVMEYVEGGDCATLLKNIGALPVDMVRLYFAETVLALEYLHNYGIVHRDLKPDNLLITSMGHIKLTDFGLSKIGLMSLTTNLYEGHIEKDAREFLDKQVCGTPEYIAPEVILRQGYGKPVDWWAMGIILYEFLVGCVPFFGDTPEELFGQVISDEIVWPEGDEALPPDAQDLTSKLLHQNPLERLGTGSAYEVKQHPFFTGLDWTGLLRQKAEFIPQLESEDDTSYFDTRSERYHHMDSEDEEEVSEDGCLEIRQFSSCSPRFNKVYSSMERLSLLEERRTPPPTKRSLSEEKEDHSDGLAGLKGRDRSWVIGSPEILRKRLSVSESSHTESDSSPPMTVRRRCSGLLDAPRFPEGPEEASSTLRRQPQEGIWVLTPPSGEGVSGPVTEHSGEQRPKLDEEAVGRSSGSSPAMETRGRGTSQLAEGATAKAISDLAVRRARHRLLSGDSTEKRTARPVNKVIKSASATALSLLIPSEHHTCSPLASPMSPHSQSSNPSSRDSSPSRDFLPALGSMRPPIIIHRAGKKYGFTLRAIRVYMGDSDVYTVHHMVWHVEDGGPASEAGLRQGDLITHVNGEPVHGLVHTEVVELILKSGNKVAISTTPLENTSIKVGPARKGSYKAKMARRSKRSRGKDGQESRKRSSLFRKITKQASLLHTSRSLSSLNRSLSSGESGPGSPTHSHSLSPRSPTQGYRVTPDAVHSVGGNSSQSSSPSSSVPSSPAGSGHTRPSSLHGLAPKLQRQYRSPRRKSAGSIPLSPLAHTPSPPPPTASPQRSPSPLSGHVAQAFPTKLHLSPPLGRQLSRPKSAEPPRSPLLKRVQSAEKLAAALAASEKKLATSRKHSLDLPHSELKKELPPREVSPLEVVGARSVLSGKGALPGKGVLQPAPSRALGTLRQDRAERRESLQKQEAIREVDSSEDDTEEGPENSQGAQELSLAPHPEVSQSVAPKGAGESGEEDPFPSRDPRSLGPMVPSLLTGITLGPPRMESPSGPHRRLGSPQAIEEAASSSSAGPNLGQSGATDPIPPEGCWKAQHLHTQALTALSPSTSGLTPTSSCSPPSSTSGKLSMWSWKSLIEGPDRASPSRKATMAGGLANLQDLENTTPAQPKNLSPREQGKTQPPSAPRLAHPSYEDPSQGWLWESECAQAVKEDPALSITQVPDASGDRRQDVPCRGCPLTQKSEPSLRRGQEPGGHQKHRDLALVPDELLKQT
# [6] = molecular target: T2, Dual specificity mitogen-activated protein kinase kinase 6 (Homo sapiens) (UniProt P52564); assay: Inhibition of MAP2K6 K2 labeling site in human Huh-7 cells at 1 uM by KiNativ Profiling analysis relative to control; format: cell-based
# T2 sequence (whole entry): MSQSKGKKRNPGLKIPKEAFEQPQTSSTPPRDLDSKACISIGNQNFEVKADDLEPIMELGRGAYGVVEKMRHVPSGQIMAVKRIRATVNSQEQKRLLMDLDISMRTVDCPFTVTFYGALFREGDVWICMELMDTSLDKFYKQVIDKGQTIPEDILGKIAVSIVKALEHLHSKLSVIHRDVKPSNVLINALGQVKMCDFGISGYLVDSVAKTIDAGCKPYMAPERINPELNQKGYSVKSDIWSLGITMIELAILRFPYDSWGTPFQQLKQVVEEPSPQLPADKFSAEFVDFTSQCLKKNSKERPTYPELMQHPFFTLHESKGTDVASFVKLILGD
# [7] = molecular target: Calcium/calmodulin-dependent protein kinase type II subunit delta (Homo sapiens) (UniProt Q13557); assay: Inhibition of CAMK2D (unknown origin) at 1 uM by Ambit Kinomescan binding assay relative to control; values are per cent of control
# Sequence of Calcium/calmodulin-dependent protein kinase type II subunit delta (Homo sapiens) (Q13557 whole entry, the tested form may be a part): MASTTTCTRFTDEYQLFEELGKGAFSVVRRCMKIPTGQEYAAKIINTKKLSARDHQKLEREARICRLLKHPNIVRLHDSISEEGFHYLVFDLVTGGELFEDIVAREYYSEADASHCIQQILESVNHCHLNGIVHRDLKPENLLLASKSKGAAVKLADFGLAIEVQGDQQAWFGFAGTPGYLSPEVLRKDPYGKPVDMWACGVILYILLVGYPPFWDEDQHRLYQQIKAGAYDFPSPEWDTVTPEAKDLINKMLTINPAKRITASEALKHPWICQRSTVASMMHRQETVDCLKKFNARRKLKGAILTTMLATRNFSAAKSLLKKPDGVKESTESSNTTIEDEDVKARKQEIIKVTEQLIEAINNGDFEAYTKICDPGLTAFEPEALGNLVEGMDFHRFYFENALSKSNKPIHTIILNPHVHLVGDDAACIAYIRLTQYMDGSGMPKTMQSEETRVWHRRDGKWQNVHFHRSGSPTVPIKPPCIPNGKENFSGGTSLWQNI
# [8] = molecular target: Phosphatidylinositol 3-kinase C2 domain-containing subunit gamma (Homo sapiens) (UniProt O75747); assay: Inhibition of PIK3C2G (unknown origin) at 1 uM by Ambit Kinomescan binding assay relative to control; values are per cent of control
# [9] = molecular target: Serine/threonine-protein kinase 4 (Homo sapiens) (UniProt Q13043); assay: Inhibition of MST1 Lys1 labeling site harbouring AIHKETGQIVAIKQVPVESDLQEIIK in human A-375 cells at 5 uM by KiNativ Profiling analysis relative to control
# Sequence of Serine/threonine-protein kinase 4 (Homo sapiens) (Q13043 whole entry, looked up): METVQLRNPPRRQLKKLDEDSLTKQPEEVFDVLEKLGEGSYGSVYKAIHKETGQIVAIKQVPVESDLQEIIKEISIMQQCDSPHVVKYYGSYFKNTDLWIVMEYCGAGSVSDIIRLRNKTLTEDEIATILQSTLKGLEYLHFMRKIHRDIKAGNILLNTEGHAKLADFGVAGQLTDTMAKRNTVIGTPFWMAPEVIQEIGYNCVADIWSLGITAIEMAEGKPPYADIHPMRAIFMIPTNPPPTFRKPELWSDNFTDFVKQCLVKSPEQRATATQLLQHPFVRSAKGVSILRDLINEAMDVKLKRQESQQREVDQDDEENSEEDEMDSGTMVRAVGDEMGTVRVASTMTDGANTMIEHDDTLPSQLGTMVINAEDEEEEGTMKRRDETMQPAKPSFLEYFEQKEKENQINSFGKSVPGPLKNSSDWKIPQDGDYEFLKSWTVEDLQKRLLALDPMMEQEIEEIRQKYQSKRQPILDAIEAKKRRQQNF
# [10] = molecular target: Mitogen-activated protein kinase 14 (Homo sapiens, UniProt Q16539); assay: Inhibition of p38 alpha in human A-375 cells at 0.05 uM by KiNativ Profiling analysis relative to control; format: cell-based
# Sequence of Mitogen-activated protein kinase 14 (Q16539 whole entry): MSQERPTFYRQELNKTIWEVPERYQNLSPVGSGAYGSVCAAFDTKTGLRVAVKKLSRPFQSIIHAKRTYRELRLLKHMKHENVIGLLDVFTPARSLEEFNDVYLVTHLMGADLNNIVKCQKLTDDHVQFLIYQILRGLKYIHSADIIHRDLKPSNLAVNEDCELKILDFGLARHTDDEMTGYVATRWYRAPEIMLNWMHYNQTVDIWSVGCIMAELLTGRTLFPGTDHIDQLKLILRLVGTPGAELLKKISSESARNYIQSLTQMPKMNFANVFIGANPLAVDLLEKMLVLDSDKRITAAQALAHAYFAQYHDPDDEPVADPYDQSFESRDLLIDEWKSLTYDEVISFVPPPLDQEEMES
# [11] = molecular target: Tyrosine-protein kinase ABL2 (Homo sapiens, UniProt P42684); assay: Inhibition of ABL2 (unknown origin) at 1 uM by Ambit Kinomescan binding assay relative to control; values are per cent of control
# Sequence of Tyrosine-protein kinase ABL2 (P42684 whole entry): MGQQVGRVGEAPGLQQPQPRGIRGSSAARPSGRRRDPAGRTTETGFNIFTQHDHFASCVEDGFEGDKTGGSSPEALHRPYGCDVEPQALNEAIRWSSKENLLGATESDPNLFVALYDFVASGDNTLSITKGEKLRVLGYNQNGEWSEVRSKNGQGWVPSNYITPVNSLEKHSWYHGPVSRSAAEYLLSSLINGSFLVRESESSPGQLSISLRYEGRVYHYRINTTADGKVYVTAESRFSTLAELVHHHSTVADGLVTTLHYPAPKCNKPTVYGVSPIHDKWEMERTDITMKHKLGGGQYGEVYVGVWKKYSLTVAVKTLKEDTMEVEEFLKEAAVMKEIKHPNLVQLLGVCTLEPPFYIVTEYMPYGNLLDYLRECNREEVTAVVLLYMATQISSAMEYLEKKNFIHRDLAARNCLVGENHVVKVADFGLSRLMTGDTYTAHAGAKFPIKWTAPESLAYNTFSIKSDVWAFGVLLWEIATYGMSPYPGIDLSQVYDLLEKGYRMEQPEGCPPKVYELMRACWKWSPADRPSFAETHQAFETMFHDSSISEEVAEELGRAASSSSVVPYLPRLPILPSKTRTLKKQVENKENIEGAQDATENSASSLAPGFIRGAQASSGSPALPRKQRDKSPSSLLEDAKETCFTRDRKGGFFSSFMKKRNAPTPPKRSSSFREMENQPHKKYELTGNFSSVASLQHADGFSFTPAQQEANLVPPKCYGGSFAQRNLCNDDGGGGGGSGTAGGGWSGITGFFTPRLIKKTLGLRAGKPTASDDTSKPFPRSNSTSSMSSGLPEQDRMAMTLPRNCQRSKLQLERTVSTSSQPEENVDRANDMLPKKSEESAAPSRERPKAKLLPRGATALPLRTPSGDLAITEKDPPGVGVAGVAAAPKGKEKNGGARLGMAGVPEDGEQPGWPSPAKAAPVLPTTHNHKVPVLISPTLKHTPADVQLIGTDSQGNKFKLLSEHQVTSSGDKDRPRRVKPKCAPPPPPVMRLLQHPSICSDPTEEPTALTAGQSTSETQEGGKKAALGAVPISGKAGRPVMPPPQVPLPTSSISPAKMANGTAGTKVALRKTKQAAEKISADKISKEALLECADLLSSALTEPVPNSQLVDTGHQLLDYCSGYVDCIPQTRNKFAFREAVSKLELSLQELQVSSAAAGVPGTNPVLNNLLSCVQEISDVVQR
# [12] = molecular target: T3, Receptor-interacting serine/threonine-protein kinase 4 (Homo sapiens) (UniProt P57078); assay: Inhibition of RIPK4 (unknown origin) at 1 uM by Ambit Kinomescan binding assay relative to control
# T3 sequence (whole entry): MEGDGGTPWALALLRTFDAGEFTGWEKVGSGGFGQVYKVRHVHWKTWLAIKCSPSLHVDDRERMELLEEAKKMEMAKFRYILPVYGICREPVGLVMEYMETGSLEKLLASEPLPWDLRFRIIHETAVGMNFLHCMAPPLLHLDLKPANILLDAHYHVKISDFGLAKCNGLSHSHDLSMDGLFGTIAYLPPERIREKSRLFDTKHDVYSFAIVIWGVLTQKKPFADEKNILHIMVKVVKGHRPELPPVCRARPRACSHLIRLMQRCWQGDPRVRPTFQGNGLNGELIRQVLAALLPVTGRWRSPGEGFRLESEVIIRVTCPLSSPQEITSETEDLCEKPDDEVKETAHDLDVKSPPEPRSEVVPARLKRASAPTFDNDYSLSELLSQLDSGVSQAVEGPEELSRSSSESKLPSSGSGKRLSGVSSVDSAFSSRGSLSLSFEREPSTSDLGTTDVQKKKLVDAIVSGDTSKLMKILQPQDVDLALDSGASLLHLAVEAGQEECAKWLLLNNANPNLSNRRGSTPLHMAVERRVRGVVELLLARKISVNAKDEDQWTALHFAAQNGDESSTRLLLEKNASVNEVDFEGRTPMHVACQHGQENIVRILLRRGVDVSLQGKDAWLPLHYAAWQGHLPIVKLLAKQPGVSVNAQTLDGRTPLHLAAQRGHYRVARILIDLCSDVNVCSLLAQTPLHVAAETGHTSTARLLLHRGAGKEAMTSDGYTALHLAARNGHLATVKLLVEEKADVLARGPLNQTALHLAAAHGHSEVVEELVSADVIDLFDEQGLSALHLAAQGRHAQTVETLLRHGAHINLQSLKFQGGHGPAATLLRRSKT
# Sequence of Casein kinase I isoform alpha (Homo sapiens) (P48729 2-337 limits assumed): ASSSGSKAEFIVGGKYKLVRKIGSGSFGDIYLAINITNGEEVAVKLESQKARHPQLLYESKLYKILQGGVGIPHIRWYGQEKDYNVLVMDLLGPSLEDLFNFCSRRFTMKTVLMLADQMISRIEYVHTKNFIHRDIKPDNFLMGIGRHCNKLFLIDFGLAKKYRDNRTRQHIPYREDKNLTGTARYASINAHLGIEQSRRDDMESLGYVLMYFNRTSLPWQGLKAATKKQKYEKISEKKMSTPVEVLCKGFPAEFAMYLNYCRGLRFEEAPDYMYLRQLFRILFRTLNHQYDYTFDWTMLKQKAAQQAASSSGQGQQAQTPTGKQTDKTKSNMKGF
smiles,measurement,setting,value
CNc1cc(Oc2cc(C(=O)Nc3cc(N4CCN(C)CC4)cc(C(F)(F)F)c3)ccc2C)ncn1,inhibition,[1],-1.9%
same,inhibition,[2],0.6%
same,inhibition,[3],7.6%
CCN1CCN(Cc2ccc(NC(=O)c3ccc(C)c(Oc4ccnc5[nH]ccc45)c3)cc2C(F)(F)F)CC1,inhibition,[4],-2.4%
same,inhibition,[5],16.1%
same,inhibition,[6],-7.1%
CCN1CCN(Cc2ccc(NC(=O)c3ccc(C)c(/C=C/c4cnc5[nH]ccc5c4OC)c3)cc2C(F)(F)F)CC1,residual activity,[7],100%
same,residual activity,[8],100%
same,inhibition,[9],16.1%
same,inhibition,[10],73.1%
same,% of control,[11],0.7%
same,inhibition,[12],100%
